Reference: the NIST ThermoML archive (doi:10.1021/je1011136)
Numbers after ± are expanded uncertainties.

Legend:
[1] = Crystal; DTA
[2] = Molar enthalpy of transition or fusion; details: Crystal; DSC

With `COc1cc(CNC(=O)CCCCCCC(C)C)ccc1O` [N-(4-hydroxy-3-methoxybenzyl)-8-methylnonanamide] the Normal melting temperature [1] was 59.4 ± 1.1 °C and the “Molar enthalpy of transition or fusion” value [2] was 4.54 ± 0.136 kcal/mol.
